Laboratory results reported in US9771369B2, “Compounds and methods for kinase modulation, and indications therefor” (Plexxikon Inc., priority 2014, dated 2017).

Tests used:
c-Kit kinase = c-Kit kinase (Homo sapiens (Human), UniProt P10721); experiment: c-Kit biochemical assay (AlphaScreen kinase activity)
Method in brief: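 AlphaScreen: c-Kit phosphorylates biotin-(E4Y)3 (100 nM) at 10 μM ATP, pH 7.2 HEPES buffer with Mg/Mn, 5% DMSO, 1 h room temperature; streptavidin donor and PY30 acceptor beads detect product. Second format: 100 μM ATP, 30 nM biotin-(E4Y)10, pH 7.5. IC50 from 8-point 1:3 dilution curves.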

[1] = system: BaF3-FL KIT D816V or BaF3-FL KIT V560G/D816V cell line; experiment: Cell-based assays of c-Kit mutant kinase activity (cell proliferation, ATPlite); details: at least one of the c-kit cell assays of Example 7
Method in brief: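 BaF3 cells dependent on transfected full-length human KIT D816V or V560G/D816V (pCI-Neo, CMV promoter) were seeded at 1×10^4 cells/well and exposed to 8-point 1:3 dilutions from 10 μM top (0.2% DMSO) for three days at 37° C. ATPlite luminescence gave cell number; IC50 from concentration-response.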

c-Kit kinase, sequence (P10721 26-976): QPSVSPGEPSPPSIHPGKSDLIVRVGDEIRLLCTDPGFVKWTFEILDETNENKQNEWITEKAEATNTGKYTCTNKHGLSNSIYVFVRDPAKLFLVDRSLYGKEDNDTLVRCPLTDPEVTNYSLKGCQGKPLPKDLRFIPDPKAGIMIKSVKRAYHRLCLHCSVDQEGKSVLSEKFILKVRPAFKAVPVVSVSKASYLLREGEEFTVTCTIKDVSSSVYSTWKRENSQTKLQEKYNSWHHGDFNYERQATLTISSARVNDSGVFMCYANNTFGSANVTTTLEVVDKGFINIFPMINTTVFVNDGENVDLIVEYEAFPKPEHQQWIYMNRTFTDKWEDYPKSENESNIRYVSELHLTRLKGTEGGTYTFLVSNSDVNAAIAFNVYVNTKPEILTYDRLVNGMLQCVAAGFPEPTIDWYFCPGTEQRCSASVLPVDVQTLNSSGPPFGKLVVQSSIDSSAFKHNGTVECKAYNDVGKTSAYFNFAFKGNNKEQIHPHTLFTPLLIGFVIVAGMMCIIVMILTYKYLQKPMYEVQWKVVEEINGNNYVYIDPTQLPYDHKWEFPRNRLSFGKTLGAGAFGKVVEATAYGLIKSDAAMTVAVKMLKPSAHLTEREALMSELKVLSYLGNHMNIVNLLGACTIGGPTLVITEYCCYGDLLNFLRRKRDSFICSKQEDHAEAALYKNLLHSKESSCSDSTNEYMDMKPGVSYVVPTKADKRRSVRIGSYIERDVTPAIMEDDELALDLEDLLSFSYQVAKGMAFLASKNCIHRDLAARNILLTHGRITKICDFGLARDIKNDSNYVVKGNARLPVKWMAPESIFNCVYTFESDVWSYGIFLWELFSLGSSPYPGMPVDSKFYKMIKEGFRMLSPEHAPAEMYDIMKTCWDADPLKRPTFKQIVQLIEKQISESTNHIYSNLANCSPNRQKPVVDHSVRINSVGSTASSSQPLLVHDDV

Compound	IC50 (c-Kit kinase) [µM]	IC50 [1] [nM]
CNC(=O)c1ccc(-c2cc3c(N4CCC(C)(c5nc(C)c(-c6ccc(OC(F)F)cc6)[nH]5)CC4)ncnc3[nH]2)cn1 [P-3246, 5-[4-[4-[5-[4-(difluoromethoxy)phenyl]-4-methyl-1H-imidazol-2-yl]-4-methyl-1-piperidyl]-7H-pyrrolo[2,3-d]pyrimidin-6-yl]-N-methyl-pyridine-2-carb oxamide]	0.0001 to 1	< 10000
CCOc1ccc(-c2[nH]c(C3(C)CCN(c4ncnc5[nH]c(-c6ccc(C(=O)NC)nc6)cc45)CC3)nc2C)cc1C [P-3247, 5-[4-[4-[5-(4-ethoxy-3-methyl-phenyl)-4-methyl-1H-imidazol-2-yl]-4-methyl-1-piperidyl]-7H-pyrrolo[2,3-d]pyrimidin-6-yl]-N-methyl-pyridine-2-carb oxamide]	0.0001 to 1	< 10000
Cc1nc(C2(C)CCN(c3ncnc4[nH]c(-c5ccc(N6CCOCC6)nc5)cc34)CC2)[nH]c1-c1ccc(OC(F)F)cc1 [P-3248, 4-[5-[4-[4-[5-[4-(difluoromethoxy)phenyl]-4-methyl-1H-imidazol-2-yl]-4-methyl-1-piperidyl]-7H-pyrrolo[2,3-d]pyrimidin-6-yl]-2-pyridyl]morpholine]	0.0001 to 1	< 10000
CCOc1ccc(-c2[nH]c(C3(C)CCN(c4ncnc5[nH]c(-c6ccc(N7CCOCC7)nc6)cc45)CC3)nc2C)cc1C [P-3249, 4-[5-[4-[4-[5-(4-ethoxy-3-methyl-phenyl)-4-methyl-1H-imidazol-2-yl]-4-methyl-1-piperidyl]-7H-pyrrolo[2,3-d]pyrimidin-6-yl]-2-pyridyl]morpholine]	0.0001 to 1	< 10000
